Test results taken from patent US20240083886A1, “HETEROCYCLIC GLP-1 AGONISTS” (Gasherbrum Bio, Inc., priority 2020, published 2024).
pEC50: −log10 of the molar value.

Biological target: GLP-1 Receptor (Homo sapiens, UniProt P43220)
Test: GLP-1R agonist cAMP stimulation assay
Type: cell-based
Conditions: not given
Procedure: Activation of GLP-1 receptor is known to stimulate cyclic AMP (cAMP) production in cells which indicates primary coupling to the Gαs subunit of the G protein heterotrimeric complex.
To optimize functional activity directed toward Gαs coupling, a HEK293/CRE-Luc cell line developed by HDB stably expressing the GLP-1 Receptor was used. 200× concentration of compound working solutions were prepared (Agilent Technologies Bravo) with ½ log serial dilution in 384-well Echo LDV plate (Labcyte, Cat #LP-0200). 50 nL/well 200× concentration of compound working solutions were moved to 384-well white low volume plate (Greiner, Cat #784075) using Labcyte ECHO550. 1×10^5 cells/mL HEK293/GLP1R/CRE-LUC(HD Biosciences) cell suspensions prepared with assay buffer[DPBS containing 0.5 mM IBMX(Sigma, Cat #15879) and 0.1% BSA (GENVIEW, Cat #FA016-100 g)], 10 uL cell suspensions were added to each well of previous generated assay plate which already contains 50 nl compound at 200×concentration using ThermoFisher Multidrop Combi (1000 cells/well). Seal the plate and incubate at 37° C. with 5% CO2 for 30 min.
After incubation the cAMP assay signal was generated using cAMP dynamic 2 Kit (Cisbio). 5 μL cAMP-d2 working solution was added to each well, followed with 5 μL Anti-cAMP antibody-cryptate working solution added to each well using ThermoFisher Multidrop Combi. Incubate at room temperature for 1 hour protected from light. Read the fluorescence at 665 and 615 nm with Reader PerkinElmer EnVision.
% Activity=100%×(mean RLU of test sample−mean RLU of vehicle control)/(mean RLU of MAX control−mean RLU of vehicle control))

GLP-1 Receptor, sequence (P43220 24-463, species assumed): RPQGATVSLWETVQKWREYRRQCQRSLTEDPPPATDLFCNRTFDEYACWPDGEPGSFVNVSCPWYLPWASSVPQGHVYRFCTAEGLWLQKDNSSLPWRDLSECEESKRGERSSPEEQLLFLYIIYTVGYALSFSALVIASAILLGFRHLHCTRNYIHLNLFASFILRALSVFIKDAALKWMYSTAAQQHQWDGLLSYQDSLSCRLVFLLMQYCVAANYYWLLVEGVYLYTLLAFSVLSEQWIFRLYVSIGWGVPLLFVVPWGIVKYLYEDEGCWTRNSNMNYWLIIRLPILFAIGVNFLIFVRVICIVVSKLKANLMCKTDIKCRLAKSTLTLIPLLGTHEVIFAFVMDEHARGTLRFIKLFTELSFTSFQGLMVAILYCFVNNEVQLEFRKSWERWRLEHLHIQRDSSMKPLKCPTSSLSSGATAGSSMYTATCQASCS

Compared with `Fc1cc(Cl)ccc1Cc1nccc(OC2CCN(Cc3nc4cc(/C=C/c5cccnc5)ccc4n3C[C@@H]3CCO3)CC2)n1` [Compound 118a, 2-{[4-({2-[(4-chloro-2-fluorophenyl)methyl]pyrimidin-4-yl}oxy)piperidin-1-yl]methyl}-1-{[(2S)-oxetan-2-yl]methyl}-5-[(1E)-2-(pyridin-3-yl)ethenyl]-1H-1,3-benzodiazole], `Cn1cc(-c2ccc3c(c2)nc(CN2CCC(Oc4ccnc(Cc5ccc(Cl)cc5)n4)CC2)n3C[C@@H]2CCO2)nn1` [Compound 130a, 2-{[4-({2-[(4-chlorophenyl)methyl]pyrimidin-4-yl}oxy)piperidin-1-yl]methyl}-5-(1-methyl-1H-1,2,3-triazol-4-yl)-1-{[(2S)-oxetan-2-yl]methyl}-1H-1,3-benzodiazole] is 1.74 log units higher in pEC50: 7.36 for the first, 9.10 for the second. The second is the more potent here.

Going from `Cc1nnc(-c2cc3nc(CN4CCC(Oc5nc(Cc6ccc(Cl)cc6)ncc5F)CC4)n(C[C@@H]4CCO4)c3cn2)[nH]1` [Compound 163a, 2-[(4-chlorophenyl)methyl]-5-fluoro-4-[(1-{[6-(5-methyl-4H-1,2,4-triazol-3-yl)-3-{[(2S)-oxetan-2-yl]methyl}-3H-imidazo[4,5-c]pyridin-2-yl]methyl}piperidin-4-yl)oxy]pyrimidine] to `Cc1nnc(-c2cc3nc(CN4CCC(Oc5nc(Cc6ccc(Cl)cc6F)ncc5F)CC4)n(C[C@@H]4CCO4)c3cn2)[nH]1` [Compound 170a, 2-[(4-chloro-2-fluorophenyl)methyl]-5-fluoro-4-[(1-{[6-(5-methyl-4H-1,2,4-triazol-3-yl)-3-{[(2S)-oxetan-2-yl]methyl}-3H-imidazo[4,5-c]pyridin-2-yl]methyl}piperidin-4-yl)oxy]pyrimidine], the pEC50 rises from 9.60 to 9.89 (0.29 log units). The second is the more potent here.

In the case of `N#Cc1nnc(-c2cc3nc(CN4CCC(Oc5nc(Cc6ccc(Cl)cc6F)ncc5F)CC4)n(C[C@@H]4CCO4)c3cn2)[nH]1` [Compound 193a, 5-(2-{[4-({2-[(4-chloro-2-fluorophenyl)methyl]-5-fluoropyrimidin-4-yl}oxy)piperidin-1-yl]methyl}-3-{[(2S)-oxetan-2-yl]methyl}-3H-imidazo[4,5-c]pyridin-6-yl)-4H-1,2,4-triazole-3-carbonitrile], the pEC50 was 10.62.

Same assay, conditions: HEK293/GLP1R/CRE-LUC cells, cAMP dynamic 2 Kit (Cisbio), 30 min incubation at 37° C.; read-out: EC50

First: Fc1cnc(Cc2ccc(Cl)cc2)nc1OC1CCN(Cc2nc3cc(-c4nnc(C(F)(F)F)[nH]4)cnc3n2C[C@@H]2CCO2)CC1 [Compound 121a, 2-[(4-chlorophenyl)methyl]-5-fluoro-4-({1-[(3-{[(2S)-oxetan-2-yl]methyl}-6-[5-(trifluoromethyl)-4H-1,2,4-triazol-3-yl]-3H-imidazo[4,5-b]pyridin-2-yl)methyl]piperidin-4-yl}oxy)pyrimidine]
Second: Fc1cnc(Cc2ccc(Cl)cc2)nc1OC1CCN(Cc2nc3cc(-c4nnc(C(F)(F)F)[nH]4)ncc3n2C[C@@H]2CCO2)CC1 [Compound 149a, 2-[(4-chlorophenyl)methyl]-5-fluoro-4-({1-[(3-{[(2S)-oxetan-2-yl]methyl}-6-[5-(trifluoromethyl)-4H-1,2,4-triazol-3-yl]-3H-imidazo[4,5-c]pyridin-2-yl)methyl]piperidin-4-yl}oxy)pyrimidine]
The pEC50 of the first is 0.95 log units lower: 9.30 for the first, 10.25 for the second.

Compared with `COC1(Cn2c(CN3CCC(Oc4cccc(Cc5ccc(Cl)cc5F)n4)CC3)nc3cc(-c4nnc(C(F)(F)F)[nH]4)ncc32)CC1` [Compound 192, 2-[(4-chloro-2-fluorophenyl)methyl]-6-{[1-({3-[(1-methoxycyclopropyl)methyl]-6-[5-(trifluoromethyl)-4H-1,2,4-triazol-3-yl]-3H-imidazo[4,5-c]pyridin-2-yl}methyl)piperidin-4-yl]oxy}pyridine], `Fc1cc(Cl)ccc1Cc1cccc(OC2CCN(Cc3nc4cc(-c5nnn[nH]5)ncc4n3C[C@@H]3CCO3)CC2)n1` [Compound 176a, 2-[(4-chloro-2-fluorophenyl)methyl]-6-({1-[(3-{[(2S)-oxetan-2-yl]methyl}-6-(1H-1,2,3,4-tetrazol-5-yl)-3H-imidazo[4,5-c]pyridin-2-yl)methyl]piperidin-4-yl}oxy)pyridine] is 1.30 log units higher in pEC50: 8.40 for the first, 9.70 for the second.

Going from `O=C(O)c1ccc2c(c1)nc(CN1CCC(Oc3ccnc(Cc4ccc(Cl)cc4F)n3)CC1)n2C[C@@H]1CCO1` [Compound 135a, 2-{[4-({2-[(4-chloro-2-fluorophenyl)methyl]pyrimidin-4-yl}oxy)piperidin-1-yl]methyl}-1-{[(2S)-oxetan-2-yl]methyl}-1H-1,3-benzodiazole-5-carboxylic acid] to `O=C(O)c1ccc2c(c1)nc(CN1CCC(Oc3nc(Cc4ccc(Cl)cc4F)ncc3F)CC1)n2C[C@@H]1CCO1` [Compound 165a, 2-{[4-({2-[(4-chloro-2-fluorophenyl)methyl]-5-fluoropyrimidin-4-yl}oxy)piperidin-1-yl]methyl}-1-{[(2S)-oxetan-2-yl]methyl}-1H-1,3-benzodiazole-5-carboxylic acid], the pEC50 falls from 9.72 to 7.92 (1.80 log units).

First: COc1cncc(-c2cc3nc(CN4CCC(Oc5cccc(Cc6ccc(Cl)cc6F)n5)CC4)n(C[C@@H]4CCO4)c3cn2)n1 [Compound 187a, 2-(2-{[4-({6-[(4-chloro-2-fluorophenyl)methyl]pyridin-2-yl}oxy)piperidin-1-yl]methyl}-3-{[(2S)-oxetan-2-yl]methyl}-3H-imidazo[4,5-c]pyridin-6-yl)-6-methoxypyrazine]
Second: Cc1ccc(C(=O)Nc2ccc3c(c2)nc(CN2CCC(Oc4ccnc(Cc5ccc(Cl)cc5F)n4)CC2)n3C[C@@H]2CCO2)cn1 [Compound 113a, N-(2-{[4-({2-[(4-chloro-2-fluorophenyl)methyl]pyrimidin-4-yl}oxy)piperidin-1-yl]methyl}-1-{[(2S)-oxetan-2-yl]methyl}-1H-1,3-benzodiazol-5-yl)-6-methylpyridine-3-carboxamide]
The pEC50 of the first is lower: < 6.52 for the first, 9.74 for the second.

Going from `COCCOc1ccc(C(=O)Nc2ccc3c(c2)nc(CN2CCC(Oc4ccnc(Cc5ccc(Cl)cc5F)n4)CC2)n3C[C@@H]2CCO2)cn1` [Compound 115a, N-(2-{[4-({2-[(4-chloro-2-fluorophenyl)methyl]pyrimidin-4-yl}oxy)piperidin-1-yl]methyl}-1-{[(2S)-oxetan-2-yl]methyl}-1H-1,3-benzodiazol-5-yl)-6-(2-methoxyethoxy)pyridine-3-carboxamide] to `CC(C)c1ccc(C(=O)Nc2ccc3c(c2)nc(CN2CCC(Oc4ccnc(Cc5ccc(Cl)cc5F)n4)CC2)n3C[C@@H]2CCO2)cn1` [Compound 116a, N-(2-{[4-({2-[(4-chloro-2-fluorophenyl)methyl]pyrimidin-4-yl}oxy)piperidin-1-yl]methyl}-1-{[(2S)-oxetan-2-yl]methyl}-1H-1,3-benzodiazol-5-yl)-6-(propan-2-yl)pyridine-3-carboxamide], the pEC50 falls from 8.57 to 7.96 (0.61 log units). The first is the more potent here.

First: Fc1cc(Cl)ccc1Cc1ncc(F)c(OC2CCN(Cc3nc4cc(-c5nnc(C(F)(F)F)[nH]5)ncc4n3C[C@@H]3CCO3)CC2)n1 [Compound 168a, 2-[(4-chloro-2-fluorophenyl)methyl]-5-fluoro-4-({1-[(3-{[(2S)-oxetan-2-yl]methyl}-6-[5-(trifluoromethyl)-4H-1,2,4-triazol-3-yl]-3H-imidazo[4,5-c]pyridin-2-yl)methyl]piperidin-4-yl}oxy)pyrimidine]
Second: Fc1cc(Cl)ccc1Cc1nccc(OC2CCN(Cc3nc4cc(-c5nnc(C(F)(F)F)[nH]5)cnc4n3C[C@@H]3CCO3)CC2)n1 [Compound 142a, 2-[(4-chloro-2-fluorophenyl)methyl]-4-({1-[(3-{[(2S)-oxetan-2-yl]methyl}-6-[5-(trifluoromethyl)-4H-1,2,4-triazol-3-yl]-3H-imidazo[4,5-b]pyridin-2-yl)methyl]piperidin-4-yl}oxy)pyrimidine]
The pEC50 of the first is 0.23 log units lower: 10.09 for the first, 10.32 for the second.

Compared with `Clc1ccc(Cc2nccc(OC3CCN(Cc4nc5cc(-c6nnn[nH]6)ccc5n4Cc4cn[nH]c4)CC3)n2)cc1` [Compound 153, 2-{[4-({2-[(4-chlorophenyl)methyl]pyrimidin-4-yl}oxy)piperidin-1-yl]methyl}-1-[(1H-pyrazol-4-yl)methyl]-5-(1H-1,2,3,4-tetrazol-5-yl)-1H-1,3-benzodiazole], `Cc1cncc(C(=O)Nc2ccc3c(c2)nc(CN2CCC(Oc4ccnc(Cc5ccc(Cl)cc5)n4)CC2)n3C[C@@H]2CCO2)c1` [Compound 101a, N-(2-{[4-({2-[(4-chlorophenyl)methyl]pyrimidin-4-yl}oxy)piperidin-1-yl]methyl}-1-{[(2S)-oxetan-2-yl]methyl}-1H-1,3-benzodiazol-5-yl)-5-methylpyridine-3-carboxamide] is 0.35 log units higher in pEC50: 9.74 for the first, 10.09 for the second. The second is the more potent here.

In the case of `FC(F)(F)c1cnn(Cc2cccc(OC3CCN(Cc4nc5cc(-c6nnc(C(F)(F)F)[nH]6)ncc5n4C[C@@H]4CCO4)CC3)n2)c1` [Compound 186a, 2-({1-[(3-{[(2S)-oxetan-2-yl]methyl}-6-[5-(trifluoromethyl)-4H-1,2,4-triazol-3-yl]-3H-imidazo[4,5-c]pyridin-2-yl)methyl]piperidin-4-yl}oxy)-6-{[4-(trifluoromethyl)-1H-pyrazol-1-yl]methyl}pyridine], the pEC50 was 8.36.
